Experimental data published in US9701664B2, “Fused 1,4-dihydrodioxin derivatives as inhibitors of heat shock transcription factor 1” (Cancer Research Technology Limited, priority 2013, dated 2017).

Key:
HSP72 in U2OS cells = assay: Cell-based ELISA (Cellisa) assay, U2OS cells: inhibition of 17-AAG-induced HSP72; settings: Homo sapiens; U2OS cells (Examples 1-168)
Method: U2OS cells (5-8×10^4 cells/mL) or SK-OV-3 cells (5-8×10^4 cells/mL) were seeded into 96-well plates and incubated at 37° C. for 48 h. Compounds were then added at a range of concentrations and incubated for 1 h before addition of 17-AAG (250 nM). Cells were then incubated for 18 h. The medium was removed washed 2× with PBS and cells were then fixed with fixing solution (4% paraformaldehyde, 0.3% TritonX-100 in PBS) for 30 min at 4° C. The plates were then washed 2× with PBS before blocking with 5% milk for 30 min at 37° C. After washing the plates 4× with 0.1% Tween-20/deionised water, HSP72 antibody (SPA-810, Enzo Life) was added for 1.5 h at 37° C. Following 4× washes, the plates were incubated with europium-labelled anti-mouse antibody (0.6 ug/ml) in Delfia assay buffer (Perkin Elmer) for 1 h at 37° C. After washing the plates, Delfia enhancement solution was added, shaken for 10 min before reading in the Envision plate reader (Perkin-Elmer) with excitation at 340 nm and emission at 615 nm. The plates were washed again before protein determination using the bicinchoninic acid assay (BCA assay, Pierce Biotechnology). The europium counts were normalised for the amount of protein in each well. The 50% inhibitory concentration value of the compound was then calculated.

U2OS cells = assay: Titre Blue cell viability assay, U2OS cells; format: cell-based; settings: Homo sapiens, U2OS

**Q.** For `Cc1ccc(NC(=O)c2ccc3c(c2)OCCO3)cc1NC(=O)c1ccc2c(c1)CS(=O)(=O)N2C` [Example 168, N-(5-(2,3-dihydrobenzo[b][1,4]dioxine-6-carboxamido)-2-methylphenyl)-1-methyl-1,3-dihydrobenzo[c]isothiazole-5-carboxamide 2,2-dioxide], which IC50 (HSP72 in U2OS cells) is on record?
**A.** 0.014 µM

**Q.** And the IC50 (U2OS cells)?
**A.** 0.019 µM

**Q.** Which results are given for `Cc1ccc(NC(=O)c2ccc3c(c2)OCCO3)cc1NC(=O)c1ccc2sccc2c1` [Example 18, N-(3-(benzo[b]thiophene-5-carboxamido)-4-methylphenyl)-2,3-dihydrobenzo[b][1,4]dioxine-6-carboxamide]?
**A.** IC50 (HSP72 in U2OS cells): 0.062 µM; IC50 (U2OS cells): 0.034 µM

**Q.** Which results are given for `COc1ccc(C(=O)Nc2cc(NC(=O)c3ccc4c(c3)OCCO4)ccc2C)cc1OC` [Example 5, N-(3-(3,4-dimethoxybenzamido)-4-methylphenyl)-2,3-dihydrobenzo[b][1,4]dioxine-6-carboxamide]?
**A.** IC50 (HSP72 in U2OS cells): 0.053 µM; IC50 (U2OS cells): 0.047 µM

**Q.** With `Cc1ccc(NC(=O)c2ccc3c(c2)OCCO3)cc1NC(=O)c1cnc2ncccc2c1` [Example 45, N-(5-(2,3-dihydrobenzo[b][1,4]dioxine-6-carboxamido)-2-methylphenyl)-1,8-naphthyridine-3-carboxamide] as the molecule, how does the IC50 (HSP72 in U2OS cells) read?
**A.** 0.036 µM

**Q.** What about the IC50 (U2OS cells) of the same molecule?
**A.** 0.085 µM

**Q.** Which results are given for `Cc1ccc(NC(=O)c2ccc3c(c2)OCCO3)cc1NC(=O)c1ccc2nc(OCCCN(C)C)ccc2c1` [Example 51, N-(5-(2,3-dihydrobenzo[b][1,4]dioxine-6-carboxamido)-2-methylphenyl)-2-(3-(dimethylamino)propoxy)quinoline-6-carboxamide]?
**A.** IC50 (HSP72 in U2OS cells): 0.004 µM; IC50 (U2OS cells): 0.01 µM

**Q.** With `COc1c(C)cc(C(=O)Nc2cc(NC(=O)c3ccc4c(c3)OCCO4)ccc2C)cc1C` [Example 42, N-(3-(4-methoxy-3,5-dimethylbenzamido)-4-methylphenyl)-2,3-dihydrobenzo[b][1,4]dioxine-6-carboxamide] as the molecule, how does the IC50 (HSP72 in U2OS cells) read?
**A.** 0.546 µM

**Q.** What about the IC50 (U2OS cells) of the same molecule?
**A.** 0.665 µM

**Q.** For `Cc1ccc(NC(=O)c2ccc3c(c2)OCCO3)cc1NC(=O)c1ccc2nc(OCCN3CC[C@H](F)C3)ccc2c1` [Example 65, (S)—N-(5-(2,3-dihydrobenzo[b][1,4]dioxine-6-carboxamido)-2-methylphenyl)-2-(2-(3-fluoropyrrolidin-1-yl)ethoxy)quinoline-6-carboxamide], which IC50 (HSP72 in U2OS cells) is on record?
**A.** 0.029 µM

**Q.** And the IC50 (U2OS cells)?
**A.** 0.007 µM

**Q.** Which IC50 (HSP72 in U2OS cells) does the source give for `Cc1ccc(NC(=O)c2ccc3c(c2)OCCO3)cc1NC(=O)c1ccc2c(c1)CCC(C)N2` (centres unmarked) [Example 152, N-(5-(2,3-dihydrobenzo[b][1,4]dioxine-6-carboxamido)-2-methylphenyl)-2-methyl-1,2,3,4-tetrahydroquinoline-6-carboxamide] here?
**A.** 0.105 µM

**Q.** What about the IC50 (U2OS cells) of the same molecule?
**A.** 0.153 µM

**Q.** How did the IC50 (HSP72 in U2OS cells) turn out when `Cc1ccc(NC(=O)c2ccc3c(c2)OCCO3)cc1NC(=O)c1ccc2c(c1)CC(C)O2` (centres unmarked) [Example 14, N-(4-methyl-3-(2-methyl-2,3-dihydrobenzofuran-5-carboxamido)phenyl)-2,3-dihydrobenzo[b][1,4]dioxine-6-carboxamide] was run?
**A.** 0.081 µM

**Q.** What about the IC50 (U2OS cells) of the same molecule?
**A.** 0.094 µM

**Q.** For `Cc1ccc(NC(=O)c2ccc3c(c2)OCCO3)cc1NC(=O)c1ccc2c(c1)CCC(=O)N2` [Example 103, N-(5-(2,3-dihydrobenzo[b][1,4]dioxine-6-carboxamido)-2-methylphenyl)-2-oxo-1,2,3,4-tetrahydroquinoline-6-carboxamide], which IC50 (HSP72 in U2OS cells) is on record?
**A.** 0.06 µM

**Q.** And the IC50 (U2OS cells)?
**A.** 0.074 µM

**Q.** `Cc1ccc(NC(=O)c2ccc3c(c2)OCCO3)cc1NC(=O)c1ccc2c(ccn2C)c1` [Example 16, N-(5-(2,3-dihydrobenzo[b][1,4]dioxine-6-carboxamido)-2-methylphenyl)-1-methyl-1H-indole-5-carboxamide] was tested. Which IC50 (HSP72 in U2OS cells) did it give?
**A.** 0.094 µM

**Q.** And the IC50 (U2OS cells)?
**A.** 0.031 µM

**Q.** What does the source list for `Cc1ccc(NC(=O)c2ccc3c(c2)OCCO3)cc1NC(=O)c1ccc2nc(OCCN3CCCCC3)ccc2c1` [Example 54, N-(5-(2,3-dihydrobenzo[b][1,4]dioxine-6-carboxamido)-2-methylphenyl)-2-(2-(piperidin-1-yl)ethoxy)quinoline-6-carboxamide]?
**A.** IC50 (HSP72 in U2OS cells): 0.01 µM; IC50 (U2OS cells): 0.007 µM

**Q.** What does the source list for `COc1cc(C(=O)Nc2cc(NC(=O)c3ccc4c(c3)OCCO4)ccc2C)ccc1Br` [Example 41, N-(3-(4-bromo-3-methoxybenzamido)-4-methylphenyl)-2,3-dihydrobenzo[b][1,4]dioxine-6-carboxamide]?
**A.** IC50 (HSP72 in U2OS cells): 0.104 µM; IC50 (U2OS cells): 0.154 µM

**Q.** For `Cc1ccc(NC(=O)c2ccc3c(c2)OCCO3)cc1NC(=O)c1cnc2c(c1)CCCC2` [Example 141, N-(5-(2,3-dihydrobenzo[b][1,4]dioxine-6-carboxamido)-2-methylphenyl)-5,6,7,8-tetrahydroquinoline-3-carboxamide], which IC50 (HSP72 in U2OS cells) is on record?
**A.** 0.032 µM

**Q.** What about the IC50 (U2OS cells) of the same molecule?
**A.** 0.044 µM

**Q.** For `Cc1ccc(NC(=O)c2ccc3c(c2)OCCO3)cc1NC(=O)c1ccc2nc(OCCCN3CCCCC3)ccc2c1` [Example 52, N-(5-(2,3-dihydrobenzo[b][1,4]dioxine-6-carboxamido)-2-methylphenyl)-2-(3-(piperidin-1-yl)propoxy)quinoline-6-carboxamide], which IC50 (HSP72 in U2OS cells) is on record?
**A.** 0.012 µM

**Q.** What about the IC50 (U2OS cells) of the same molecule?
**A.** 0.006 µM

**Q.** For `Cc1ccc(NC(=O)c2ccc3c(c2)OCCO3)cc1NC(=O)c1ccc2nc(OCCCN3CCCC3)ccc2c1` [Example 56, N-(5-(2,3-dihydrobenzo[b][1,4]dioxine-6-carboxamido)-2-methylphenyl)-2-(3-(pyrrolidin-1-yl)propoxy)quinoline-6-carboxamide], which IC50 (HSP72 in U2OS cells) is on record?
**A.** 0.013 µM

**Q.** What about the IC50 (U2OS cells) of the same molecule?
**A.** 0.003 µM

**Q.** What does the source list for `N#Cc1ccc(NC(=O)c2ccc3c(c2)OCCO3)cc1NC(=O)c1ccc2ncccc2c1` [Example 140, N-(2-cyano-5-(2,3-dihydrobenzo[b][1,4]dioxine-6-carboxamido)phenyl)quinoline-6-carboxamide]?
**A.** IC50 (HSP72 in U2OS cells): 0.031 µM; IC50 (U2OS cells): 0.034 µM

**Q.** For `Cc1ccc(NC(=O)c2ccc3c(c2)OCCO3)cc1NC(=O)c1ccc2[nH]c(=O)ccc2c1` [Example 48, N-(5-(2,3-dihydrobenzo[b][1,4]dioxine-6-carboxamido)-2-methylphenyl)-2-oxo-1,2-dihydroquinoline-6-carboxamide], which IC50 (HSP72 in U2OS cells) is on record?
**A.** 0.141 µM

**Q.** And the IC50 (U2OS cells)?
**A.** 0.172 µM

**Q.** `COc1ccc(C(=O)Nc2cc(NC(=O)c3ccc4c(c3)OCCO4)ccc2C)cc1` [Example 27, N-(3-(4-methoxybenzamido)-4-methylphenyl)-2,3-dihydrobenzo[b][1,4]dioxine-6-carboxamide] was tested. Which IC50 (HSP72 in U2OS cells) did it give?
**A.** 0.371 µM

**Q.** And the IC50 (U2OS cells)?
**A.** 0.106 µM

**Q.** With `Cc1ccc(NC(=O)c2ccc3c(c2)OCCO3)cc1NC(=O)c1ccc2c(c1)COC2=O` [Example 8, N-(4-methyl-3-(1-oxo-1,3-dihydroisobenzofuran-5-carboxamido)phenyl)-2,3-dihydrobenzo[b][1,4]dioxine-6-carboxamide] as the molecule, how does the IC50 (HSP72 in U2OS cells) read?
**A.** 0.205 µM

**Q.** And the IC50 (U2OS cells)?
**A.** 0.108 µM

**Q.** `CCc1ccc(NC(=O)c2ccc3c(c2)OCCO3)cc1NC(=O)c1ccc2ncccc2c1` [Example 133, N-(5-(2,3-dihydrobenzo[b][1,4]dioxine-6-carboxamido)-2-ethylphenyl)quinoline-6-carboxamide] was tested. Which IC50 (HSP72 in U2OS cells) did it give?
**A.** 0.127 µM

**Q.** And the IC50 (U2OS cells)?
**A.** 0.111 µM

**Q.** Which IC50 (HSP72 in U2OS cells) does the source give for `Cc1ccc(NC(=O)c2ccc3c(c2)OCCO3)cc1NC(=O)c1ccc2occc2c1` [Example 17, N-(3-(benzofuran-5-carboxamido)-4-methylphenyl)-2,3-dihydrobenzo[b][1,4]dioxine-6-carboxamide] here?
**A.** 0.097 µM

**Q.** What about the IC50 (U2OS cells) of the same molecule?
**A.** 0.073 µM

**Q.** For `Cc1ccc(NC(=O)c2cnc3c(c2)OCCO3)cc1NC(=O)c1ccc2nc(OCCN3CCCC3)ccc2c1` [Example 134, N-(4-methyl-3-(2-(2-(pyrrolidin-1-yl)ethoxy)quinoline-6-carboxamido)phenyl)-2,3-dihydro-[1,4]dioxino[2,3-b]pyridine-7-carboxamide], which IC50 (HSP72 in U2OS cells) is on record?
**A.** 0.051 µM

**Q.** And the IC50 (U2OS cells)?
**A.** 0.049 µM

**Q.** Which IC50 (HSP72 in U2OS cells) does the source give for `Cc1ccc(NC(=O)c2ccc3c(c2)OCCO3)cc1NC(=O)c1ccc2nc(OCCNC(=O)OC(C)(C)C)ccc2c1` [Example 21, tert-butyl (2-((6-((5-(2,3-dihydrobenzo[b][1,4]dioxine-6-carboxamido)-2-methylphenyl)carbamoyl)quinolin-2-yl)oxy)ethyl)carbamate] here?
**A.** 0.141 µM

**Q.** What about the IC50 (U2OS cells) of the same molecule?
**A.** 0.084 µM

**Q.** For `Cc1ccc(NC(=O)c2ccc3c(c2)OCCO3)cc1NC(=O)c1ccc2nc(OCCN3CCCC(F)C3)ccc2c1` (centres unmarked) [Example 57, N-(5-(2,3-dihydrobenzo[b][1,4]dioxine-6-carboxamido)-2-methylphenyl)-2-(2-(3-fluoropiperidin-1-yl)ethoxy)quinoline-6-carboxamide], which IC50 (HSP72 in U2OS cells) is on record?
**A.** 0.037 µM

**Q.** And the IC50 (U2OS cells)?
**A.** 0.031 µM

**Q.** With `O=C(Nc1ccc(Br)c(NC(=O)c2ccc3nc(OCCN4CCCC4)ccc3c2)c1)c1ccc2c(c1)OCCO2` [Example 139, N-(2-bromo-5-(2,3-dihydrobenzo[b][1,4]dioxine-6-carboxamido)phenyl)-2-(2-(pyrrolidin-1-yl)ethoxy)quinoline-6-carboxamide] as the molecule, how does the IC50 (HSP72 in U2OS cells) read?
**A.** 0.02 µM

**Q.** And the IC50 (U2OS cells)?
**A.** 0.023 µM

**Q.** Which IC50 (HSP72 in U2OS cells) does the source give for `COc1ccc2cc(C(=O)Nc3cc(NC(=O)c4ccc5c(c4)OCCO5)ccc3C)ccc2n1` [Example 29, N-(5-(2,3-dihydrobenzo[b][1,4]dioxine-6-carboxamido)-2-methylphenyl)-2-methoxyquinoline-6-carboxamide] here?
**A.** 0.499 µM

**Q.** What about the IC50 (U2OS cells) of the same molecule?
**A.** 0.626 µM

**Q.** For `Cc1cc2cc(C(=O)Nc3cc(NC(=O)c4ccc5c(c4)OCCO5)ccc3C)cnc2[nH]1` [Example 99, N-(5-(2,3-dihydrobenzo[b][1,4]dioxine-6-carboxamido)-2-methylphenyl)-2-methyl-1H-pyrrolo[2,3-b]pyridine-5-carboxamide], which IC50 (HSP72 in U2OS cells) is on record?
**A.** 0.042 µM

**Q.** And the IC50 (U2OS cells)?
**A.** 0.062 µM
